Holding throughout (experiment): relative viability (nuclei count vs DMSO), 5 days (fraction); higher = more cells survive
Compound in the assay “KN-93 + Navitoclax”: CN(C/C=C/C1=CC=C(C=C1)Cl)CC2=CC=CC=C2N(CCO)S(=O)(=O)C3=CC=C(C=C3)OC [KN-93] + CC1(C)CCC(c2ccc(Cl)cc2)=C(CN2CCN(c3ccc(C(=O)NS(=O)(=O)c4ccc(N[C@H](CCN5CCOCC5)CSc5ccccc5)c(S(=O)(=O)C(F)(F)F)c4)cc3)CC2)C1 [Navitoclax] (partner 0.5 µM)
The procedure, abridged: (§1)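 Dosing by pin tool came one day after lung cancer cell lines were seeded in 1536-well plates, using either one drug or a fixed anchor-drug dose plus five library-drug doses (not always all listed) in √10 steps. After 5 days, nuclei were counted on 4× images. Relative viability is treated-well nuclei count divided by vehicle-well nuclei count, and values are medians of duplicate plates.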

Compound in the assay “KN-93 + Trametinib”: CN(C/C=C/C1=CC=C(C=C1)Cl)CC2=CC=CC=C2N(CCO)S(=O)(=O)C3=CC=C(C=C3)OC [KN-93] + CC(=O)Nc1cccc(-n2c(=O)n(C3CC3)c(=O)c3c(Nc4ccc(I)cc4F)n(C)c(=O)c(C)c32)c1 [Trametinib] (partner 0.02 µM)
The procedure, abridged:
as §1

Compound in the assay “KN-93 + Dasatinib”: CN(C/C=C/C1=CC=C(C=C1)Cl)CC2=CC=CC=C2N(CCO)S(=O)(=O)C3=CC=C(C=C3)OC [KN-93] + Cc1nc(Nc2ncc(C(=O)Nc3c(C)cccc3Cl)s2)cc(N2CCN(CCO)CC2)n1 [Dasatinib] (partner 0.075 µM)
The method, boiled down:
as §1

Compound in the assay “KN-93 + Foretinib”: CN(C/C=C/C1=CC=C(C=C1)Cl)CC2=CC=CC=C2N(CCO)S(=O)(=O)C3=CC=C(C=C3)OC [KN-93] + COc1cc2c(Oc3ccc(NC(=O)C4(C(=O)Nc5ccc(F)cc5)CC4)cc3F)ccnc2cc1OCCCN1CCOCC1 [Foretinib] (partner 0.25 µM)
The method, boiled down: as §1

Compound in the assay “KN-93 + Lapatinib”: CN(C/C=C/C1=CC=C(C=C1)Cl)CC2=CC=CC=C2N(CCO)S(=O)(=O)C3=CC=C(C=C3)OC [KN-93] + CS(=O)(=O)CCNCc1ccc(-c2ccc3ncnc(Nc4ccc(OCc5cccc(F)c5)c(Cl)c4)c3c2)o1 [Lapatinib] (partner 2 µM)
The method, boiled down: as §1

Consider COR-L 105, for which the relative viability in the assay with KN-93 + Navitoclax (first compound 0.08 µM) was 0.733; with KN-93 + Navitoclax (first compound 0.253 µM), 0.639; with KN-93 + Navitoclax (first compound 2.53 µM), 0.731; with KN-93 + Navitoclax (first compound 8 µM), 0.514; with KN-93 + Trametinib (first compound 0.08 µM), 0.452; in the assay with KN-93 + Trametinib (first compound 0.253 µM) it was 0.41. Further, the relative viability in the assay with KN-93 + Trametinib (first compound 2.53 µM) stood at 0.437; with KN-93 + Trametinib (first compound 8 µM), 0.399; with KN-93 + Dasatinib (first compound 0.08 µM), 0.363; in the assay with KN-93 + Dasatinib (first compound 0.253 µM), 0.277; with KN-93 + Dasatinib (first compound 2.53 µM), 0.302; in the assay with KN-93 + Dasatinib (first compound 8 µM), 0.239. Moreover, the relative viability with KN-93 + Foretinib (first compound 0.08 µM) amounted to 0.987; in the assay with KN-93 + Foretinib (first compound 0.253 µM), 1.05; with KN-93 + Foretinib (first compound 2.53 µM) it was 1.02; in the assay with KN-93 + Foretinib (first compound 8 µM) it was 0.73; with KN-93 + Lapatinib (first compound 0.08 µM), 0.451; with KN-93 + Lapatinib (first compound 0.253 µM) it was 0.318. In addition, the results for the relative viability with KN-93 + Lapatinib (first compound 2.53 µM) and with KN-93 + Lapatinib (first compound 8 µM) were 0.318 and 0.367, respectively.

Turning to EKVX, the relative viability in the assay with KN-93 + Navitoclax (first compound 0.08 µM) was 0.824; with KN-93 + Navitoclax (first compound 0.253 µM), 0.742; with KN-93 + Navitoclax (first compound 2.53 µM), 1.13; in the assay with KN-93 + Navitoclax (first compound 8 µM), 0.305; with KN-93 + Trametinib (first compound 0.08 µM) it was 0.359; with KN-93 + Trametinib (first compound 0.253 µM) it was 0.285. In addition, the relative viability came to 0.341 with KN-93 + Trametinib (first compound 2.53 µM); 0.279 in the assay with KN-93 + Trametinib (first compound 8 µM); 0.42 in the assay with KN-93 + Dasatinib (first compound 0.08 µM); 0.429 with KN-93 + Dasatinib (first compound 0.253 µM); 0.358 in the assay with KN-93 + Dasatinib (first compound 2.53 µM); 0.389 with KN-93 + Dasatinib (first compound 8 µM). The relative viability with KN-93 + Foretinib (first compound 0.08 µM) is 0.849; with KN-93 + Foretinib (first compound 0.253 µM), 0.758; with KN-93 + Foretinib (first compound 2.53 µM), 0.911; with KN-93 + Foretinib (first compound 8 µM), 0.22; in the assay with KN-93 + Lapatinib (first compound 0.08 µM) it was 0.209; with KN-93 + Lapatinib (first compound 0.253 µM), 0.133. The results for the relative viability with KN-93 + Lapatinib (first compound 2.53 µM) and with KN-93 + Lapatinib (first compound 8 µM) were 0.194 and 0.153, respectively.

As for EMC-BAC-2, the relative viability was 0.845 with KN-93 + Navitoclax (first compound 0.08 µM); 1.32 in the assay with KN-93 + Navitoclax (first compound 0.253 µM); 1.37 with KN-93 + Navitoclax (first compound 2.53 µM); 1.05 with KN-93 + Navitoclax (first compound 8 µM); 0.912 with KN-93 + Trametinib (first compound 0.08 µM); 0.826 in the assay with KN-93 + Trametinib (first compound 0.253 µM). The relative viability was 0.945 in the assay with KN-93 + Trametinib (first compound 2.53 µM); 0.714 in the assay with KN-93 + Trametinib (first compound 8 µM); 0.299 in the assay with KN-93 + Dasatinib (first compound 0.08 µM); 0.366 in the assay with KN-93 + Dasatinib (first compound 0.253 µM); 0.3 with KN-93 + Dasatinib (first compound 2.53 µM); 0.272 in the assay with KN-93 + Dasatinib (first compound 8 µM). Besides, the relative viability came to 0.962 in the assay with KN-93 + Foretinib (first compound 0.08 µM); 1.05 with KN-93 + Foretinib (first compound 0.253 µM); 0.938 with KN-93 + Foretinib (first compound 2.53 µM); 0.752 in the assay with KN-93 + Foretinib (first compound 8 µM); 0.852 with KN-93 + Lapatinib (first compound 0.08 µM); 0.956 with KN-93 + Lapatinib (first compound 0.253 µM). The relative viability with KN-93 + Lapatinib (first compound 2.53 µM) is 0.943; in the assay with KN-93 + Lapatinib (first compound 8 µM), 0.625.

As to EPLC-272H, the relative viability with KN-93 + Navitoclax (first compound 0.08 µM) was found to be 0.945; in the assay with KN-93 + Navitoclax (first compound 0.253 µM), 1.27; in the assay with KN-93 + Navitoclax (first compound 2.53 µM) it was 1.18; with KN-93 + Navitoclax (first compound 8 µM), 0.849; in the assay with KN-93 + Trametinib (first compound 0.08 µM), 0.289; in the assay with KN-93 + Trametinib (first compound 0.253 µM), 0.279. Also, the relative viability in the assay with KN-93 + Trametinib (first compound 2.53 µM) was 0.283; with KN-93 + Trametinib (first compound 8 µM), 0.23; with KN-93 + Dasatinib (first compound 0.08 µM), 0.32; in the assay with KN-93 + Dasatinib (first compound 0.253 µM) it was 0.452; with KN-93 + Dasatinib (first compound 2.53 µM) it was 0.274; with KN-93 + Dasatinib (first compound 8 µM), 0.206. Besides, the relative viability in the assay with KN-93 + Foretinib (first compound 0.08 µM) was 0.621; with KN-93 + Foretinib (first compound 0.253 µM), 0.762; in the assay with KN-93 + Foretinib (first compound 2.53 µM) it was 0.573; with KN-93 + Foretinib (first compound 8 µM) it was 0.389; in the assay with KN-93 + Lapatinib (first compound 0.08 µM), 0.925; with KN-93 + Lapatinib (first compound 0.253 µM), 1.03. In addition, the relative viability with KN-93 + Lapatinib (first compound 2.53 µM) amounted to 0.981; in the assay with KN-93 + Lapatinib (first compound 8 µM), 0.774.

In the case of H3255, the relative viability with KN-93 + Navitoclax (first compound 0.08 µM) was determined as 0.56; with KN-93 + Navitoclax (first compound 0.253 µM), 0.511; with KN-93 + Navitoclax (first compound 2.53 µM), 0.55; in the assay with KN-93 + Navitoclax (first compound 8 µM), 0.124; in the assay with KN-93 + Trametinib (first compound 0.08 µM), 0.643; with KN-93 + Trametinib (first compound 0.253 µM), 0.59. For the same cell line, the relative viability turned out to be 0.671 in the assay with KN-93 + Trametinib (first compound 2.53 µM); 0.417 with KN-93 + Trametinib (first compound 8 µM); 0.366 in the assay with KN-93 + Dasatinib (first compound 0.08 µM); 0.343 with KN-93 + Dasatinib (first compound 0.253 µM); 0.511 with KN-93 + Dasatinib (first compound 2.53 µM); 0.341 with KN-93 + Dasatinib (first compound 8 µM). Further, the relative viability with KN-93 + Foretinib (first compound 0.08 µM) was 0.986; with KN-93 + Foretinib (first compound 0.253 µM) it was 0.902; in the assay with KN-93 + Foretinib (first compound 2.53 µM) it was 0.864; with KN-93 + Foretinib (first compound 8 µM), 0.807; with KN-93 + Lapatinib (first compound 0.08 µM), 0.266; with KN-93 + Lapatinib (first compound 0.253 µM), 0.241. Besides, the relative viability with KN-93 + Lapatinib (first compound 2.53 µM) was 0.259; in the assay with KN-93 + Lapatinib (first compound 8 µM), 0.224.

Regarding HARA, the relative viability in the assay with KN-93 + Navitoclax (first compound 0.08 µM) is 0.983; with KN-93 + Navitoclax (first compound 0.253 µM) it was 1.22; with KN-93 + Navitoclax (first compound 2.53 µM) it was 1.02; with KN-93 + Navitoclax (first compound 8 µM), 0.687; with KN-93 + Trametinib (first compound 0.08 µM), 0.632; with KN-93 + Trametinib (first compound 0.253 µM), 0.549. Also, the relative viability was determined as 0.434 with KN-93 + Trametinib (first compound 2.53 µM); 0.461 with KN-93 + Trametinib (first compound 8 µM); 0.246 in the assay with KN-93 + Dasatinib (first compound 0.08 µM); 0.283 with KN-93 + Dasatinib (first compound 0.253 µM); 0.248 with KN-93 + Dasatinib (first compound 2.53 µM); 0.104 in the assay with KN-93 + Dasatinib (first compound 8 µM). The relative viability in the assay with KN-93 + Foretinib (first compound 0.08 µM) was found to be 0.918; in the assay with KN-93 + Foretinib (first compound 0.253 µM), 1.37; in the assay with KN-93 + Foretinib (first compound 2.53 µM), 0.887; with KN-93 + Foretinib (first compound 8 µM), 0.532; with KN-93 + Lapatinib (first compound 0.08 µM), 0.693; with KN-93 + Lapatinib (first compound 0.253 µM), 0.737. In addition, the values for the relative viability in the assay with KN-93 + Lapatinib (first compound 2.53 µM) and with KN-93 + Lapatinib (first compound 8 µM) were 0.811 and 0.625, respectively.

As for HCC-15, the relative viability is 0.539 with KN-93 + Navitoclax (first compound 0.08 µM); 0.718 in the assay with KN-93 + Navitoclax (first compound 0.253 µM); 0.794 in the assay with KN-93 + Navitoclax (first compound 2.53 µM); 0.579 in the assay with KN-93 + Navitoclax (first compound 8 µM); 0.359 in the assay with KN-93 + Trametinib (first compound 0.08 µM); 0.367 in the assay with KN-93 + Trametinib (first compound 0.253 µM). Further, the relative viability with KN-93 + Trametinib (first compound 2.53 µM) stood at 0.348; with KN-93 + Trametinib (first compound 8 µM) it was 0.306; in the assay with KN-93 + Dasatinib (first compound 0.08 µM) it was 0.59; with KN-93 + Dasatinib (first compound 0.253 µM), 0.535; in the assay with KN-93 + Dasatinib (first compound 2.53 µM), 0.581; with KN-93 + Dasatinib (first compound 8 µM) it was 0.447. Moreover, the relative viability in the assay with KN-93 + Foretinib (first compound 0.08 µM) is 0.914; in the assay with KN-93 + Foretinib (first compound 0.253 µM), 1.12; in the assay with KN-93 + Foretinib (first compound 2.53 µM), 1.11; with KN-93 + Foretinib (first compound 8 µM) it was 0.807; with KN-93 + Lapatinib (first compound 0.08 µM), 0.625; with KN-93 + Lapatinib (first compound 0.253 µM), 1.01. In addition, the results for the relative viability with KN-93 + Lapatinib (first compound 2.53 µM) and in the assay with KN-93 + Lapatinib (first compound 8 µM) were 1.02 and 0.685, respectively.

These data come from the supplement of paper PMC10307832.
